According to ChEMBL document CHEMBL1201862, “PubChem BioAssay data set” (2004):
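Cultured in 96-well plates, cells were exposed to test compound for 48 hours across five concentrations. GI50 = concentration required for 50% inhibition of growth.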 Active and inactive are the calls of the source. Rule as the data show it: active = GI50 up to about 1.1 µM and inactive = higher.

Experiments:
Assay in all cases: NCI-60 cell line screen, 48 h
786-0 = test system: 786-0
A549 = test system: A549
COLO 205 = test system: COLO 205
HOP-92 = test system: HOP-92
IGROV-1 = test system: IGROV-1
LOX IMVI = test system: LOX IMVI
Malme-3M = test system: Malme-3M
NCI-H226 = test system: NCI-H226
NCI-H23 = test system: NCI-H23
NCI/ADR-RES = test system: NCI/ADR-RES
OVCAR-5 = test system: OVCAR-5
OVCAR-8 = test system: OVCAR-8
RXF 393 = test system: RXF 393
SK-MEL-5 = test system: SK-MEL-5
SK-OV-3 = test system: SK-OV-3
SW-620 = test system: SW-620
UACC-62 = test system: UACC-62
HT-29 = test system: HT-29
OVCAR-4 = test system: OVCAR-4

| SMILES | GI50 (786-0) | GI50 (A549) | GI50 (COLO 205) | GI50 (HOP-92) | GI50 (IGROV-1) | GI50 (LOX IMVI) | GI50 (Malme-3M) | GI50 (NCI-H226) | GI50 (NCI-H23) | GI50 (NCI/ADR-RES) | GI50 (OVCAR-5) | GI50 (OVCAR-8) | GI50 (RXF 393) | GI50 (SK-MEL-5) | GI50 (SK-OV-3) | GI50 (SW-620) | GI50 (UACC-62) | GI50 (HT-29) | GI50 (OVCAR-4) |
| --- | --- | --- | --- | --- | --- | --- | --- | --- | --- | --- | --- | --- | --- | --- | --- | --- | --- | --- | --- |
| NCCc1ccc2c(c1)C(=O)c1c(O)ccc(O)c1C2=O | 2.2 µM (inactive) | 3.56 µM (inactive) | 1.68 µM (inactive) | 4.05 µM (inactive) | 3.4 µM (inactive) | 4.11 µM (inactive) | 1.87 µM (inactive) | 17 µM (inactive) | 3.5 µM (inactive) | 3.93 µM (inactive) | 5.06 µM (inactive) | 2.04 µM (inactive) | > 21.6 µM (inactive) | 0.843 µM (active) | 5.86 µM (inactive) | 3.95 µM (inactive) | 5.86 µM (inactive) |  |  |
| O=C1NC(=O)C(CCC(=O)c2cccc3ccccc23)C(=O)N1 | > 100 µM (inactive) | > 100 µM (inactive) | > 100 µM (inactive) | > 100 µM (inactive) |  | > 100 µM (inactive) |  | 77.8 µM (inactive) | > 100 µM (inactive) | > 100 µM (inactive) | > 100 µM (inactive) | > 100 µM (inactive) | > 100 µM (inactive) | > 100 µM (inactive) | > 100 µM (inactive) | > 100 µM (inactive) | > 100 µM (inactive) | > 100 µM (inactive) | > 100 µM (inactive) |
| NCCc1nc(-c2nc(C(=O)O)cs2)cs1 | > 100 µM (inactive) | > 100 µM (inactive) | > 100 µM (inactive) | > 100 µM (inactive) | > 100 µM (inactive) | > 100 µM (inactive) | > 100 µM (inactive) |  | > 100 µM (inactive) | > 100 µM (inactive) | > 100 µM (inactive) | > 100 µM (inactive) | > 100 µM (inactive) | > 100 µM (inactive) | > 100 µM (inactive) | > 100 µM (inactive) | > 100 µM (inactive) | > 100 µM (inactive) | > 100 µM (inactive) |
| COc1nc2ncc([C@@H](O)[C@H](O)CO)nc2c(=O)[nH]1 | > 100 µM (inactive) | > 100 µM (inactive) | > 100 µM (inactive) | > 100 µM (inactive) | > 100 µM (inactive) | > 100 µM (inactive) | > 100 µM (inactive) | > 100 µM (inactive) |  | > 100 µM (inactive) | > 100 µM (inactive) | > 100 µM (inactive) | > 100 µM (inactive) | > 100 µM (inactive) | > 100 µM (inactive) | > 100 µM (inactive) | > 100 µM (inactive) | > 100 µM (inactive) | > 100 µM (inactive) |
| O=C(CSCC(=O)N/N=C/c1cccs1)N/N=C/c1cccs1 | 47.6 µM (inactive) | > 100 µM (inactive) |  | 27.2 µM (inactive) | 66.7 µM (inactive) | > 100 µM (inactive) | 61 µM (inactive) | 37.2 µM (inactive) | 38.8 µM (inactive) | 40 µM (inactive) | > 100 µM (inactive) | 37 µM (inactive) | 74.3 µM (inactive) | 76.4 µM (inactive) | > 100 µM (inactive) | > 100 µM (inactive) | > 100 µM (inactive) | > 100 µM (inactive) | 45.2 µM (inactive) |
| COc1ccc(C2C(C#N)=C(S)N(C3OC(CO)C(O)C(O)C3O)C(C)=C2C(C)=O)cc1 (centres undefined) | > 100 µM (inactive) | > 100 µM (inactive) | > 100 µM (inactive) | 29 µM (inactive) | > 100 µM (inactive) | > 100 µM (inactive) | > 100 µM (inactive) | > 100 µM (inactive) | > 100 µM (inactive) | > 100 µM (inactive) | > 100 µM (inactive) | > 100 µM (inactive) | 50 µM (inactive) | 42.2 µM (inactive) |  | > 100 µM (inactive) | 86.1 µM (inactive) | > 100 µM (inactive) | > 100 µM (inactive) |
| Cc1c2ccccc2cc2nc3ccccc3n12 | > 10 µM (inactive) | > 10 µM (inactive) | > 10 µM (inactive) | > 10 µM (inactive) | > 10 µM (inactive) |  | > 10 µM (inactive) | > 10 µM (inactive) | > 10 µM (inactive) | > 10 µM (inactive) | > 10 µM (inactive) | > 10 µM (inactive) | > 10 µM (inactive) | > 10 µM (inactive) | > 10 µM (inactive) | > 10 µM (inactive) | > 10 µM (inactive) | > 10 µM (inactive) | > 10 µM (inactive) |
| COc1cc(/C=N/n2c(-c3ccccc3)n[nH]c2=O)cc(OC)c1OC | 3.5 µM (inactive) | 4.95 µM (inactive) |  | 13.8 µM (inactive) | 2.43 µM (inactive) | 3.22 µM (inactive) | 1.46 µM (inactive) | > 41.3 µM (inactive) | 4.41 µM (inactive) | 1.44 µM (inactive) | 22.4 µM (inactive) | 4.81 µM (inactive) | 4.94 µM (inactive) | 0.815 µM (active) | 2.56 µM (inactive) |  | 2.34 µM (inactive) | 4.39 µM (inactive) | > 26.9 µM (inactive) |
| CCN(CCN(CC)C(=O)NC)C(=O)NC | > 100 µM (inactive) | > 100 µM (inactive) | > 100 µM (inactive) | > 100 µM (inactive) | > 100 µM (inactive) | > 100 µM (inactive) | > 100 µM (inactive) | > 100 µM (inactive) | > 100 µM (inactive) | > 100 µM (inactive) | > 100 µM (inactive) | > 100 µM (inactive) | > 100 µM (inactive) | > 100 µM (inactive) | > 100 µM (inactive) | > 100 µM (inactive) | > 100 µM (inactive) | > 100 µM (inactive) |  |
| COc1ccc(NC(=O)NNS(=O)(=O)c2ccc(C)cc2)cc1 | 0.792 µM (active) | > 100 µM (inactive) | > 100 µM (inactive) | > 100 µM (inactive) | > 100 µM (inactive) |  | > 100 µM (inactive) | > 100 µM (inactive) | 52.8 µM (inactive) | > 100 µM (inactive) | > 100 µM (inactive) | > 100 µM (inactive) | > 100 µM (inactive) | 74 µM (inactive) | > 100 µM (inactive) | > 100 µM (inactive) | 70 µM (inactive) | > 100 µM (inactive) | 25.1 µM (inactive) |
| CC(=S)N/C=C1/C(=O)C=C(C)OC1=O | > 100 µM (inactive) | > 100 µM (inactive) | > 100 µM (inactive) | > 100 µM (inactive) | > 100 µM (inactive) | > 100 µM (inactive) |  | > 100 µM (inactive) | > 100 µM (inactive) | > 100 µM (inactive) | > 100 µM (inactive) | > 100 µM (inactive) | > 100 µM (inactive) | 90.2 µM (inactive) | > 100 µM (inactive) | > 100 µM (inactive) | > 100 µM (inactive) | > 100 µM (inactive) | > 100 µM (inactive) |
| CCCCN1C(=O)C2Cc3c([nH]c4ccccc34)C(c3cccc(O)c3)N2C1=O (centres undefined) | 18.9 µM (inactive) | 18.4 µM (inactive) | 19.6 µM (inactive) | 19.2 µM (inactive) | 17.5 µM (inactive) | 18 µM (inactive) |  | 21.5 µM (inactive) | 20.3 µM (inactive) | 18.5 µM (inactive) | 18.8 µM (inactive) | 18.9 µM (inactive) |  | 17 µM (inactive) | 16.1 µM (inactive) | 19.9 µM (inactive) | 17.7 µM (inactive) | 20.9 µM (inactive) | 18.7 µM (inactive) |
| C=C(C)C1Cc2c(cc3c(c2O)c(=O)c2ccccc2n3C)O1 (centres undefined) | 1.51 µM (inactive) | 6.62 µM (inactive) | 5.75 µM (inactive) | 7.67 µM (inactive) | 1.87 µM (inactive) |  | 1.63 µM (inactive) | 2.41 µM (inactive) | 2.36 µM (inactive) | 2.3 µM (inactive) | 13.3 µM (inactive) | 1.84 µM (inactive) | 2.75 µM (inactive) | 2.38 µM (inactive) | 4.97 µM (inactive) | 1.81 µM (inactive) | 2.34 µM (inactive) | 2.61 µM (inactive) | 6.81 µM (inactive) |
| CCCCCCCCCC[C@@H](O)[C@H]1CC[C@@H]([C@H]2CC[C@H]([C@H](O)CCCCCCCCCC[C@@H]3CC(CC(C)=O)C(=O)O3)O2)O1 (some centres undefined) | 25.8 µM (inactive) | 2.16 µM (inactive) | 1.52 µM (inactive) | 17 µM (inactive) | 8.28 µM (inactive) | 1.23 µM (inactive) | 15.1 µM (inactive) | 1 µM (active) | 0.00223 µM (active) | 0.167 µM (active) | 48.1 µM (inactive) | 2.34 µM (inactive) | 4.99 µM (inactive) | 0.01 µM (active) |  | 4.4 µM (inactive) | 3.92 µM (inactive) | 3.42 µM (inactive) | 18.9 µM (inactive) |
| O=c1c(O)c(-c2ccc(O)cc2O)oc2cc(O)cc(O)c12 [MORIN] | > 100 µM (inactive) | > 100 µM (inactive) | > 100 µM (inactive) | > 100 µM (inactive) | > 100 µM (inactive) | > 100 µM (inactive) | > 100 µM (inactive) | > 100 µM (inactive) | > 100 µM (inactive) | > 100 µM (inactive) | > 100 µM (inactive) | > 100 µM (inactive) |  | > 100 µM (inactive) |  | > 100 µM (inactive) |  | > 100 µM (inactive) | > 100 µM (inactive) |
